Consider 19 compounds from US9617289B2, “RSV antiviral compounds” (JANSSEN R&D IRELAND, priority 2012, dated 2017).

Molecules are shown by their SMILES.

The test system of the first assay is rgRSV224 virus. Put plainly: Antiviral activity: inhibition of rgRSV224 (GFP-expressing RSV) replication in HeLa cells. Type of assay: cell-based, respiratory syncytial virus. The settings on record: human respiratory syncytial virus, HeLa, 72 h, read-out: RSV-wt_pEC50. In a few lines:
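HeLa cells infected with GFP-expressing rgRSV224 at MOI 0.02 alongside 4-fold compound dilutions in duplicate (0.5% DMSO). Incubated 3 days at 37 °C; EC50 taken as 50% inhibition of GFP expression by laser microscopy. CC50 measured in parallel uninfected cells by ATP content after 3 days; SI = CC50/EC50.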
With `CCOP(=O)(OCC)N1CCC2(CC1)C(=O)N(Cc1nc3cc(Cl)ccc3n1CCCC#N)c1cnccc12` [Compound 115, Diethyl (1′-{[5-chloro-1-(3-cyanopropyl)-1H-benzimidazol-2-yl]methyl}-2′-oxo-1′,2′-dihydro-1H-spiro[piperidine-4,3′-pyrrolo[2,3-c]pyridin]-1-yl)phosphonate], the EC50 was 0.0692 nM.

The same assay, now with this note: human respiratory syncytial virus, HeLa, 72 h, read-out: RSV-wt_pEC50, rgRSV224 (MOI=0.02) in HeLa cells, GFP expression three days post-virus exposure.
On to `N#CCCCn1c(CN2C(=O)C3(CCN(C(=O)OC4CCC4)CC3)c3ccncc32)cc2cc(Cl)ccc21` [Compound 103, Cyclobutyl 1′-{[5-chloro-1-(3-cyanopropyl)-1H-indol-2-yl]-methyl}-2′-oxo-1′,2′-dihydro-1H-spiro[piperidine-4,3′-pyrrolo[2,3-c]pyridine]-1-carboxylate], for which the EC50 was 0.263 nM.
Consider `CC(C)(O)C(=O)N1CCC2(CC1)C(=O)N(Cc1cc3cc(Cl)ccc3n1CCCCF)c1cnccc12` [Compound 106, 1′-{[5-Chloro-1-(4-fluorobutyl)-1H-indol-2-yl]methyl}-1-(2-hydroxy-2-methylpropanoyl)spiro[piperidine-4,3′-pyrrolo-[2,3-c]pyridin]-2′(1′H)-one], for which the EC50 was 0.24 nM.
Regarding `CC(C)(O)C(=O)N1CCC2(CC1)C(=O)N(Cc1nc3cc(Cl)ccc3n1CCCC#N)c1cnccc12` [Compound 107, 4-(5-Chloro-2-{[1-(2-hydroxy-2-methylpropanoyl)-2′-oxo-spiro[piperidine-4,3′-pyrrolo[2,3-c]pyridin]-1′(2′H)-yl]-methyl}-1H-benzimidazol-1-yl)butanenitrile], the EC50 is 0.0794 nM.
On to `N#CCCCn1c(CN2C(=O)C3(CCS(=O)(=O)CC3)c3ccncc32)nc2cc(Cl)ccc21` [Compound 108, 4-{5-Chloro-2-[(1′,1′-dioxido-2-oxo-2′,3′,5′,6′,-tetrahydro-spiro[pyrrolo[2,3-c]pyridine-3,4′-thiopyran]-1(2H)-yl)-methyl]-1H-benzimidazol-1-yl}butanenitrile], for which the EC50 is 0.871 nM.
Same read-out and setting: with `N#CCCCn1c(CN2C(=O)C3(CC(O)C3)c3ccccc32)nc2cc(Cl)ccc21` (stereo not shown) [Compound 109, 4-{5-Chloro-2-[(3-hydroxy-2′-oxospiro[cyclobutane-1,3′-indol]-1′(2′H)-yl)methyl]-1H-benzimidazol-1-yl}butanenitrile] the figure was 0.191 nM.
For the compound `N#CCCCn1c(COC2CC3(C2)C(=O)N(Cc2nc4cc(Cl)ccc4n2CCCC#N)c2ccccc23)nc2cc(Cl)ccc21` [Compound 110, 4-(5-chloro-2-(((1S,3S)-1′-((5-chloro-1-(3-cyanopropyl)-1H-benzo[d]imidazol-2-yl)methyl)-2′-oxospiro[cyclobutane-1,3′-indoline]-3-yloxy)methyl)-1H-benzo[d]imidazol-1-yl)butanenitrile], the EC50 is 1.45 nM.
Take `NS(=O)(=O)N1CCC2(CC1)C(=O)N(Cc1cc3cc(Cl)ccc3n1CCCCF)c1cnccc12` [Compound 111, 1′-{[5-Chloro-1-(4-fluorobutyl)-1H-indol-2-yl]methyl}-2′-oxo-1′,2′-dihydro-1H-spiro[piperidine-4,3′-pyrrolo[2,3-c]-pyridine]-1-sulfonamide]: the EC50 was 0.123 nM.
For `N#CCCCn1c(CN2C(=O)C3(CCN(S(=O)(=O)C4CC4)CC3)c3ccncc32)nc2cc(Cl)ccc21` [Compound 112, 4-(5-Chloro-2-{[1-(cyclopropylsulfonyl)-2′-oxospiro-[piperidine-4,3′-pyrrolo[2,3-c]pyridin]-1′(2′H)-yl]methyl}-1H-benzimidazol-1-yl)butanenitrile], the EC50 is 0.0251 nM.
Consider `CC(C)(C)OC(=O)N1CCC2(CC1)C(=O)N(Cc1cc3ccccc3n1CCCC(F)(F)F)c1cnccc12` [Compound 113, tert-Butyl 2′-oxo-1′-{[1-(4,4,4-trifluorobutyl)-1H-indol-2-yl]methyl}-1′,2′-dihydro-1H-spiro[piperidine-4,3′-pyrrolo[2,3-c]pyridine]-1-carboxylate], for which the EC50 was 66.1 nM.
Consider `CC(O)(C(=O)N1CCC2(CC1)C(=O)N(Cc1nc3cc(Cl)ccc3n1CCCC#N)c1cnccc12)C(F)(F)F` (stereo not shown) [Compound 116, 4-(5-Chloro-2-{[2′-oxo-1-(3,3,3-trifluoro-2-hydroxy-2-methylpropanoyl)spiro[piperidine-4,3′-pyrrolo[2,3-c]pyridin]-1′(2′H)-yl]methyl}-1H-benzimidazol-1-yl)butanenitrile], for which the EC50 was 0.0708 nM.
Regarding `CNC(=O)O[C@H]1C[C@@]2(C1)C(=O)N(Cc1cc3cc(Cl)ccc3n1CCCCF)c1ccccc12` [Compound 120, (1r,3r)-1′-((5-chloro-1-(4-fluorobutyl)-1H-indol-2-yl)methyl)-2′-oxospiro[cyclobutane-1,3′-indolin]-3-yl methylcarbamate], the EC50 is 2.4 nM.
Turning to `CC(C)(O)C(=O)N1CC[C@@]2(C1)C(=O)N(Cc1nc3cc(Cl)ccc3n1CCCS(C)(=O)=O)c1ccccc12` [Compound 121, (R)-1-({5-Chloro-1-[3-(methylsulfonyl)propyl]-1H-benzimidazol-2-yl}methyl)-1′-(2-hydroxy-2-methylpropanoyl)spiro[indole-3,3′-pyrrolidin]-2(1H)-one], the EC50 is 8.51 nM.
Turning to `CC(C)(O)C(=O)N1CC[C@]2(C1)C(=O)N(Cc1nc3cc(Cl)ccc3n1CCCS(C)(=O)=O)c1ccccc12` [Compound 122, (S)-1-((5-chloro-1-(3-(methylsulfonyl)propyl)-1H-benzo[d]imidazol-2-yl)methyl)-1′-(2-hydroxy-2-methylpropanoyl)spiro[indoline-3,3′-pyrrolidin]-2-one], the EC50 was 8.32 nM.
`CNC(=O)O[C@H]1C[C@@]2(C1)C(=O)N(Cc1cc3cc(Cl)ccc3n1CCCC#N)c1ccccc12` [Compound 123, (1r,3r)-1′-((5-chloro)-1-(3-cyanopropyl)-1H-indol-2-yl)methyl)-2′-oxospiro[cyclobutane-1,3′-indolin]-3-yl methylcarbamate]: the EC50 was 0.339 nM.
In the case of `N#CCCCn1c(CN2c3ccccc3[C@]3(C[C@H](NC(=O)OC4CC4)C3)C2=O)nc2cc(Cl)ccc21` [Compound 125, cyclopropyl ((1s,3s)-1′-((5-chloro-1-(3-cyanopropyl)-1H-benzo[d]imidazol-2-yl)methyl)-2′-oxospiro[cyclobutane-1,3′-indolin]-3-yl)carbamate], the EC50 is 0.288 nM.
Turning to `N#CCCCn1c(CN2c3ccccc3[C@]3(C[C@@H](NC(=O)OC4CC4)C3)C2=O)nc2cc(Cl)ccc21` [Compound 126, cyclopropyl ((1r,3r)-1-((5-chloro-1-(3-cyanopropyl)-1H-benzo[d]imidazol-2-yl)methyl)-2′-oxospiro[cyclobutane-1,3′-indolin]-3-yl)carbamate], the EC50 was 0.257 nM.
Take `N#CCCCn1c(CN2C(=O)C3(CN(C(=O)[C@H](O)CO)C3)c3ccccc32)cc2cc(Cl)ccc21` [Compound 131, (R)-4-(5-chloro-2-((1-(2,3-dihydroxypropanoyl)-2′-oxospiro[azetidine-3,3′-indolin]-1′-yl)methyl)-1H-indol-1-yl)butanenitrile]: the EC50 was 0.427 nM.
For `N#CCCCn1c(CN2C(=O)C3(CCN(C(=O)OC4CC4)CC3)c3ccncc32)cc2cc(Cl)ccc21` [Compound 132, Cyclopropyl 1′-{[5-chloro-1-(3-cyanopropyl)-1H-indol-2-yl]methyl}-2′-oxo-1′,2′-dihydro-1H-spiro[piperidine-4,3′-pyrrolo[2,3-c]pyridine]-1-carboxylate], the EC50 is 0.0646 nM.
